Measured values reported in patent US7842782B2, “Heparanase-derived peptides for vaccination of tumor patients” (Deutsches Krebsforschungszentrum Stiftung Des Öffentlichen …, priority 2003, dated 2010).

Assays:
[1] = tested on: peptide-specific T-cells from the bone marrow (BMTCs); assay: IFN-γ Enzyme-Linked Immuno Assay (ELISpot); type: cell-based, human; conditions: for patients significantly reacted against peptide: BMTCs of 15 female breast cancer patients, insulin p34 negative control, 10 μg/ml peptide; for reaction of T cells in ELISpot: vs insulin
Description: Mononuclear cells (MNC) from periphery blood (PB) and bone marrow (BM) were isolated via Ficoll gradients (Biocoll separating solution, Biochrom AG). MNC were washed two times with RPMI 1640, transferred to uncoated cell culture dishes, and grown for two hours at 37° C., 5% CO2 in x-VIVO-20 media (BioWhittaker, Walkersville, Md.) for adhesion. Adherent cells were cultivated for 7 day in x-VIVO-20 media with the addition of GM-CSF ([…]; Behringwerke, Marburg) and IL-4 (1000 U/ml; Promocell, Heidelberg). Dendritic cells (DCs) were magnetically isolated via anti-CD-3-coated and anti-CD-19-coated magnetic beads (Dynal). Non-adherent cells were cultivated for 7 days in RPMI 1640 supplemented with 8% human AB sera (Sigma), rhuIL-2 (100 U/ml; Chiron, Ratingen) and IL-4 (60 U/ml). T cells (TCs) were purified via anti-CD-56-coated, anti-CD-19-coated and anti-CD-15-coated magnetic beads.
The number of peptide-specific T-cells from the bone marrow (BMTCs) of female patients is determined by the ELISpot method. For this purpose, a 96-well ELISpot plate (Millipore) is coated with anti-human-IFNγ antibodies (ELISpot Kit, Mabtech) over night at 4° C. and then one hour blocked with RPMI 5% AB sera (37° C., 5% CO2). 10^4 DCs, 10^5 TCs and 10 μg/ml peptide are cultivated on the IFN-γ-coated ELISpot plate for 40 hours (37° C., 5% CO2). Supernatants are discarded and the plate is developed via the ELISpot kit (Mabtech). IFN-γ producing cells are counted with Axioplan Mikroskop (Zeiss) by using the KS ELISpot software. For negative controls, HIV or insulin peptides are used. Each group is determined in triplicate. Positive results are measured via the so-called T-test (p<0.05).

[2] = tested on: CD8-positive T cells; assay: Tetramer staining (HLA-A2/peptide tetramers, flow cytometry); type: cell-based, human; conditions: 2 examined patients (text summary of Table 4)
Description: 10^6 of each BM-MNC and PB-MNC are blocked with 5% endobulin (immunoglobulin G), incubated with tetramers on ice for 45 min and then stained with CD8-FITC (Becton Dickinson). Dead cells are identified by propidium iodide. The number of T-cells which are double positive for CD8 and tetramer are determined by flow cytometry.

Substance	patients significantly reacted against peptide [1] [%]	reaction of T cells in ELISpot ([1]; MaCa patient 503)	reaction of T cells in ELISpot ([1]; MaCa patient 579)	reaction of T cells in ELISpot ([1]; MaCa patient 590)	reaction of T cells in ELISpot ([1]; MaCa patient 639)	reaction of T cells in ELISpot ([1]; MaCa patient 790)	reaction of T cells in ELISpot ([1]; MaCa patient 923)	HLA-A2peptide staining of CD8-positive T cells [2]	reaction of T cells in ELISpot ([1]; MaCa patient 704)	reaction of T cells in ELISpot ([1]; MaCa patient 581)	reaction of T cells in ELISpot ([1]; MaCa patient 753)
L L L G P L G P L (LLLGPLGPL) [Hpa p16]	33	x (x = positive (p value < 0.05) reaction of T cells in ELISpot)	x (x = positive (p value < 0.05) reaction of T cells in ELISpot)	x (x = positive (p value < 0.05) reaction of T cells in ELISpot)	x (x = positive (p value < 0.05) reaction of T cells in ELISpot)	x (x = positive (p value < 0.05) reaction of T cells in ELISpot)	x (x = positive (p value < 0.05) reaction of T cells in ELISpot)	enriched fractions of CD8-positive T cells	–	–	–
A L P P P L M L L (ALPPPLMLL) [Hpa p8]	20	x (x = positive (p value < 0.05) reaction of T cells in ELISpot)	–	–	x (x = positive (p value < 0.05) reaction of T cells in ELISpot)	–	–	enriched fractions of CD8-positive T cells	x (x = positive (p value < 0.05) reaction of T cells in ELISpot)	–	–
D L I F G L N A L (DLIFGLNAL) [Hpa p183]	40	x (x = positive (p value < 0.05) reaction of T cells in ELISpot)	x (x = positive (p value < 0.05) reaction of T cells in ELISpot)	–	x (x = positive (p value < 0.05) reaction of T cells in ELISpot)	x (x = positive (p value < 0.05) reaction of T cells in ELISpot)	–	–	–	x (x = positive (p value < 0.05) reaction of T cells in ELISpot)	x (x = positive (p value < 0.05) reaction of T cells in ELISpot)
